Where two headings read alike, the source gives them in different places.
Tests used:
NK1 receptor = target: T1, NK1 receptor (Cavia porcellus, UniProt P30547); experiment: Antagonism of iodinated tachykinin binding to NK1 receptor (125I-Bolton Hunter Lys-3 labeled substance P, guinea pig lung membranes)
T1 construct: Tissues or cells were homogenized with a Polytron in 15 volumes of 50 mM Tris-HCl buffer; tissue Keystone Biologicals, Cleveland, OH; host or cells: guinea pig lung membranes
Method: (§1) The NK1 receptor affinity of proposed tachykinin antagonists was devaluated in guinea pig lungs (Keystone Biologicals, Cleveland, OH), affinity for the NK2 receptor evaluated in HSKR-1 cells (which are mouse 3T3 fibroblasts expressing the human jejunal NK2 receptor) and NK-3 receptor affinity was evaluated in freshly collected guinea pig cerebral cortex. Tissues or cells were homogenized with a Polytron in 15 volumes of 50 mM Tris-HCl buffer (pH 7.4, 4°C) and centrifuged. The pellet was resuspended in Tris-HCl buffer and was centrifuged; the pellet was washed twice by resuspension. The final pellet was resuspended at a concentration of 40 mg/ml for tissues (guinea pig lung and cerebral cortex) and 20 mg/ml for cells in incubation buffer and remained at room temperature for at least 15 min prior to use. Receptor binding was initiated by addition of 250 µl membrane preparation in duplicate to 0.1 nM of the following radioligands: ^125I-Bolton Hunter Lys-3 labeled substance P; ^125iodohistidyl-1-neurokinin A; and ^125I-Bolton Hunter labeled Lys-4 eledoisin in a final volume of 500 µl of buffer containing 50 mM Tris-HCl (pH 7.4 at room temperature), 0.1% bovine serum albumin, 2 mM MnCl2, 40 µg/ml bacitracin, 4 µg/ml leupeptin and chymostatin, 1 µM thiorphan and various doses of the putative tachykinin antagonists. Incubations were performed at room temperature for 90 min (NK1 receptor assays) or 2 hr (NK2 and NK3 receptor assays); binding was terminated by addition of 50 mM Tris-HCl buffer (pH 7.4, 4°C) and filtration under vacuum through GF/B filters presoaked with 0.1% polyethyleneimine (NK1 receptor assays) or 0.5% bovine serum albumin (NK2 and NK3 receptor assays). Filter bound radioactivity was quantitated in a gamma counter. Nonspecific binding was defined as binding in the presence of 1 µM substance P, neurokinin A, or eledoisin. Specific binding was calculated by subtracting nonspecific binding from total binding. Competition of iodinated SP, NKA, or eledoisin binding by test compounds or standards was expressed as a percentage of this maximum competition. IC50 values (concentration required to inhibit 50% of receptor binding) were generated for each of the test compounds by nonlinear regression using an iterative curve fitting program (GraphPAD Inplot, San Diego, CA).

[1] = target: T2, human jejunal NK2 receptor (Homo sapiens, UniProt P21452); experiment: Antagonism of iodinated tachykinin binding to NK2 receptor (125iodohistidyl-1-neurokinin A, HSKR-1 cell membranes); settings: HSKR-1 cells (mouse 3T3 fibroblasts expressing human jejunal NK2 receptor); mean of several experiments; read-out: NK-2 IC50
T2 construct: expressed in transfected cells; host or cells: HSKR-1 cells (mouse 3T3 fibroblasts)
T2 sequence (P21452 1-398): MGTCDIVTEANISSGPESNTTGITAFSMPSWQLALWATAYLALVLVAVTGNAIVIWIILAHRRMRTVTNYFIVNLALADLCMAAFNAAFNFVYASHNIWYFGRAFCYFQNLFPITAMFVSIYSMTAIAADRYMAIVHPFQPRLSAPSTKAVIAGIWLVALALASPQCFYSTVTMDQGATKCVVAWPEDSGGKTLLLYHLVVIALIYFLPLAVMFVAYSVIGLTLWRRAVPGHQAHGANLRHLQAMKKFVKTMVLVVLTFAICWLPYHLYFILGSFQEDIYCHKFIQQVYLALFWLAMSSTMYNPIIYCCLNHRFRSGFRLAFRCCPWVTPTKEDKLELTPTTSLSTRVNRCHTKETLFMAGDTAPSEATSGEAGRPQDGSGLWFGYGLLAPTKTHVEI
Method: as §1

NK-3 receptor = target: T3, NK-3 receptor (Cavia porcellus, UniProt P30098); experiment: Antagonism of iodinated tachykinin binding to NK-3 receptor (125I-Bolton Hunter labeled Lys-4 eledoisin, guinea pig cerebral cortex membranes)
T3 construct: freshly collected guinea pig cerebral cortex; from tissue; host or cells: guinea pig cerebral cortex membranes
T3 sequence (P30098 1-440): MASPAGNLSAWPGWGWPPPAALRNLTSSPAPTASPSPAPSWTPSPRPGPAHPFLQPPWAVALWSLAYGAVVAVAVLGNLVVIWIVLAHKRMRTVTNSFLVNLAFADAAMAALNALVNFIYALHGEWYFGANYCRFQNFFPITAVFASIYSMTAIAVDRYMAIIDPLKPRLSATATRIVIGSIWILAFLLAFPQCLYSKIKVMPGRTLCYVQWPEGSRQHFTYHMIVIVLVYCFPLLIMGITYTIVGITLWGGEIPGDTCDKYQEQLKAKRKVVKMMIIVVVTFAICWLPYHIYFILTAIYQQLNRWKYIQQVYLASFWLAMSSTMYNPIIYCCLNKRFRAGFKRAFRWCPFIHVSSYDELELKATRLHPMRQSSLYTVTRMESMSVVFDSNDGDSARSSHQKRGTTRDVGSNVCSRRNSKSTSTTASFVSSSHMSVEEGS
Method: as §1

[2] = tested on: capsaicin-induced respiratory effects; experiment: Antagonism of capsaicin aerosol induced respiratory effects in conscious guinea pigs (whole body plethysmography); assay type: in vivo, guinea pig; settings: for DYSPNEA ONSET / MAXIMUM PRESSURE INCREASE (mmH2O) / SRE NUMBER*: mean and SEM; for SRE NUMBER*: number of coughs/gasps during 19 min exposure
Method: In vivo experiments were performed using male Duncan Hartley guinea pigs (250-350g). Changes in conscious breathing patterns were monitored in four animals simultaneously using modified whole body plethysmography consisting of four small plexiglass boxes each connected to a reference box via Validyne DP 45-16 differential pressure transducers. The 4 boxes were equipped with an air supply line (also used for aerosol delivery) and an exhaust air line. Supply and exhaust lines were of the same length and narrow bore and arose from a common supply chamber and vented to a common exhaust chamber. This system was used to ensure that fluctuations in supply air and atmospheric pressure would remain in phase and be eliminated from the net signal by the differential pressure transducers. The analog pressure signals were digitalized via a Data Translation DT2821 A to D board. Data were collected at a rate of 100 samples/second/animal. Each cycle of pressure change was analyzed using the following parameters: rising and falling slope determined between minimum and maximum pressures, the ratio of rising over falling slope, and the magnitude of the change between initial trough pressure and peak cycle pressure. Using these values (and observing the animals) the pressure cycles were characterized into normal breaths, forced exhalations (apparent by abdominal heaving), significant respiratory events (SREs; usually coughs, less often sneezes or gasps which were characterized by transient, extremely large pressure increases which were distinguishable from noise) and movement/noise with a PCAT 286 running a System V UNIX operating system. Dyspnea was defined as a significant, sustained increase in plethysmograph pressure which was associated with an observable shift to labored breathing in the animal.
During the course of a typical experiment in which airway responsiveness to various bronchoconstricting agents was examined, aerosols were delivered for 19 min (0.33 ml/min) using a DeVilbiss Ultraneb 99 ultrasonic nebulizer and animals monitored during this time. Prior to nebulization, 1 min of resting breathing was collected to establish a baseline pressure. […] The vehicle for nebulization of all bronchoconstrictive agents was phosphate buffered saline (pH 7.4) which elicited no respiratory effects itself. Putative tachykinin antagonists were administered either (i.v.) 20 min prior to onset of aerosol exposure or orally 1 hour prior to onset (to guinea pigs after an overnight fast).
Capsaicin aerosol is known to promote release of the tachykinins SP and NKA from sensory nerves in the airways of guinea pigs which may then act upon NK1 and NK2 receptors, respectively to elicit respiratory effects. […]
(§2) Values are mean and SEM of data derived from number of animals indicated in parenthesis. Putative tachykinin antagonists were administered intravenously 20 min prior to initiation of capsaicin aerosol (0.001%). *SRE number indicates the number of coughs/gasps which occurred during the 19 min capsaicin exposure period.
as §2, with “by oral gavage 1 hr” for “intravenously 20 min”

[3] = guinea pig lungs, mean of several experiments, read-out: NK-1 IC50
[4] = guinea pig cerebral cortex, mean of several experiments, read-out: NK-3 IC50
[5] = 25 mg/kg by oral gavage 1 hr prior to capsaicin aerosol (0.001%)
[6] = 50 mg/kg by oral gavage 1 hr prior to capsaicin aerosol (0.001%)

T1 sequence (P30547 whole entry): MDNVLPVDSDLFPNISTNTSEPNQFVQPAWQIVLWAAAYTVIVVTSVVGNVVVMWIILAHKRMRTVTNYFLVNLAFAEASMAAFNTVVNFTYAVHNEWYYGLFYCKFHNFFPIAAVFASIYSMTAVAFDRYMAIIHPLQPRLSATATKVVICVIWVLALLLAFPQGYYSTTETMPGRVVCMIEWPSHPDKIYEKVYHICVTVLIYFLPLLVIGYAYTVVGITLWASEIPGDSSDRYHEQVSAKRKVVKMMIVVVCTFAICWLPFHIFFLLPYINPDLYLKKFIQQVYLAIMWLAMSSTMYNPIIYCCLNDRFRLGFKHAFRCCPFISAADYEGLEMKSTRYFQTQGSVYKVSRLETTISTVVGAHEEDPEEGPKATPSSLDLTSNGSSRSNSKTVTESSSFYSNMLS

SMILES | IC50 (NK1 receptor; [3]) | IC50 [1] | IC50 (NK-3 receptor; [4]) | IC50 (NK-3 receptor) | other results
COC(=O)[C@@H](NC(=O)C1(c2ccccc2)CCN(CCC2(c3ccc(Cl)c(Cl)c3)CCN(C(=O)c3ccccc3)C2)CC1)[C@@H](C)O (stereo partly shown) [Example 7, 2-[(1-(2-[1-benzoyl-3-(3,4-dichloro-phenyl)-pyrrolidin-3-yl]-ethyl)-4-phenyl-piperidine-4-carboxyl)-amino]-3-hydroxy butyric acid methyl ester] | 240 nM | 10 nM | 202 nM | – | –
O=C(c1ccccc1)N1CCC(CCN2CCC3(CC2)C(=O)NCN3c2ccccc2)(c2ccc(Cl)c(Cl)c2)C1 (stereo not shown) [Example 10, 8-[2-[3-(3,4-dichloro-phenyl)-1-benzoyl-pyrrolidin-3-yl]-ethyl]-1-phenyl-1,3,8-triaza-spiro[4.5]-decane-4-one] | 255 nM | 11 nM | 1190 nM | – | –
COc1ccc(C(=O)N2CCC(CCN3CCC(C(N)=O)(c4ccccc4)CC3)(c3ccc(Cl)c(Cl)c3)C2)c(OC)c1 (stereo not shown) [Example 2, 1-[2-[3-(3,4-dichloro-phenyl)-1-(2,4-dimethoxy-benzoyl)-pyrrolidin-3-yl]-ethyl]-4-phenyl-piperidine-4-carboxylic acid amide] | 131 nM | 34 nM | – | 65 nM | –
NC(=O)C1(c2ccccc2)CCN(CCC2(c3ccc(Cl)c(Cl)c3)CCN(C(=O)c3ccccc3)C2)CC1 (stereo not shown) [Example 1, 1-[2-[3-(3,4-dichloro-phenyl)-1-benzoyl-pyrrolidin-3-yl]-ethyl]-4-phenyl-piperidine-4-carboxylic acid amide] | – | 7 nM | – | 162 nM | –
COc1cccc(OC)c1C(=O)N1CCC(CCN2CCC3(CC2)C(=O)NCN3c2ccccc2)(c2ccc(Cl)c(Cl)c2)C1 (stereo not shown) [Example 9, 8-[2-[3-(3,4-dichloro-phenyl)-1-(2,6-dimethoxy-benzoyl)-pyrrolidin-3-yl]-ethyl]-1-phenyl-1,3,8-triaza-spiro[4.5]decane-4-one] | 49 nM | 118 nM | 183 nM | – | –
NC(=O)C1(c2ccccc2)CCN(CCC2(c3ccc(Cl)c(Cl)c3)CC(=O)N(Cc3ccccc3)C2)CC1 (stereo not shown) [Example 11, 1-[2-[1-benzyl-3-(3,4-dichloro-phenyl)-5-oxo-pyrrolidin-3-yl]-ethyl]-4-phenyl-piperidine-4-carboxylic acid amide] | 196 nM | 127 nM | 203 nM | – | –
COc1cccc(OC)c1C(=O)N1CCC(CCN2CCC(C(N)=O)(c3ccccc3)CC2)(c2ccc(Cl)c(Cl)c2)C1 (stereo not shown) [Example 5, 1-[2-[3-(3,4-dichloro-phenyl)-1-(2,6-dimethoxy-benzoyl)-pyrrolidin-3-yl]-ethyl]-4-phenyl-piperidine-4-carboxylic acid amide] | – | 41 nM | – | 65 nM | IC50 (NK1 receptor): 20 nM; DYSPNEA INCIDENCE [2, 5]: 66.7% (6/9); DYSPNEA ONSET [2, 5]: 253 ± 47 s; MAXIMUM PRESSURE INCREASE (mmH2O) [2, 5]: 0.7 ± 0.1 mmH2O; SRE NUMBER* [2, 5]: 4.4 ± 1.2; DYSPNEA INCIDENCE [2, 6]: 85.7% (6/7); DYSPNEA ONSET [2, 6]: 384 ± 85 s; MAXIMUM PRESSURE INCREASE (mmH2O) [2, 6]: 0.5 ± 0.1 mmH2O; SRE NUMBER* [2, 6]: 4.9 ± 1.9
